Patent US20220023335A1, “COMPOSITION FOR PREVENTION AND/OR IMPROVEMENT OF ADVERSE DRUG REACTION, SYMPTOM ASSOCIATED WITH ADVERSE DRUG REACTION, AND/OR ADVERSE REACTION ASSOCIATED WITH MEDICAL TREATMENT” (MiZ Company Limited, priority 2020, published 2022)

Tests used:
[1] = known; cited from earlier work
[2] = tested on: adverse drug reactions of lost hair on the head and rough skin; details: person, hydrogen gas 6.6% by volume, approximately 120 mL/min
[3] = tested on: adverse reactions to hemodialysis (walking difficulty, edema); details: person on hemodialysis, hydrogen approximately 5% in air, 200 mL/min, three to four hours per day
Source text: A patient developed renal failure as a complication of diabetes mellitus and has been receiving hemodialysis since 2006.

[4] = tested on: adverse drug reactions of malaise and rough skin; details: person; hydrogen gas 4% to 5% by volume, approximately 200 mL/min, three to five hours per day, plus 500 mL per day of 7 ppm hydrogen water; three months
[5] = tested on: malaise and nausea after radiotherapy; details: cancer patient after radiotherapy, hydrogen gas 3% to 4% by volume, approximately 120 mL/min
[6] = tested on: adverse drug reactions of sleepiness and tiredness; details: person, three days later
[7] = tested on: adverse drug reaction of persistent insomnia, malaise; details: person
Source text: A patient with esophageal cancer experienced an adverse drug reaction of persistent insomnia due to treatment with anticancer agents, lost appetite because of malaise, and could not even go out. […] The inhalation time per day was two to three hours. […] When they drank too much alcohol, they used to have a severe hangover.

[8] = tested on: rhabdomyolysis caused by the antibacterial agent; details: person, hydrogen gas 6.6% by volume, approximately 120 mL/min, 90 minutes per day for two weeks
Source text: They lost strength in the body and was taken to hospital by ambulance. […] They were discharged from hospital one week later, but the tiredness persisted, and they had difficulty in putting strength into the limbs. […] Their condition improved to the extent that they could have a walk.

Row | SMILES | superoxide eliminating effect compared with H2 [1] | rough skin ([2]; sarcoma, anticancer agents and Opdivo, approximately one month later) | hair on the head ([2]; inhalation continued for six months after anticancer treatment) | walking difficulty ([3]; from 10 days after initiation) | edema after dialysis ([3]; from one month after initiation) | malaise [4] | skin condition [4] | nausea ([5]; 90 minutes later) | malaise (body feeling) ([5]; one hour after start of inhalation) | tiredness of the body after taking the drugs ([6]; cedar pollinosis, hydrogen gas 6.6% by volume, approximately 120 mL/min, 90 minutes to three hours per day, plus 7 ppm hydrogen water 500 mL to 1 L per day) | sleepiness / clearness of the head ([6]; hydrogen gas 6.6% by volume plus 7 ppm hydrogen water) | sleep (insomnia) ([7]; esophageal cancer, hydrogen gas 1.3% by volume, approximately 30 mL/min, two to three hours per day, following the second inhalation) | ability to go out / body feeling ([7]; hydrogen gas 1.3% by volume, approximately 30 mL/min, two to three hours per day) | hangover after too much alcohol ([7]; hydrogen inhaled before going to sleep) | strength in the limbs ([8]; new quinolone antibacterial agent) | tiredness [8]
1 | [2H][2H] [D2, deuterium] | stronger |  |  |  |  |  |  |  |  |  |  |  |  |  |  | 
2 | [HH] [hydrogen gas, molecular hydrogen] |  | the rough skin started improving | started growing | able to walk | edema was reduced | malaise subsided | the skin started becoming lustrous | Nausea was gradually resolving | they felt the body becoming light | reduced | they felt that the head was cleared | could sleep soundly | the patient was able to go out | a hangover started improving earlier than usual | became gradually able to put strength into the limbs | reduced tiredness
